Source: patent US20260364184A1, “COMPOUND BASED ON OXOISOINDOLINYL-SUBSTITUTED TETRAHYDROPYRIMIDINE-DIONE AND USE THEREOF” (GLUETACS THERAPEUTICS (SHANGHAI) CO., LTD., priority 2023, published 2026)

Key:
[1] = system: Human myeloid monocytic leukemia cell line (MV-4-11); experiment: Inhibition of MV-4-11 cell proliferation (CellTiter luminescent viability); format: cell-based; conditions: Homo sapiens, MV4-11, Table IE3, CDK4/6 inhibitor-based, 96 hours; for inhibition at 0.01 µM: MV-4-11, 10 nM, read-out: Inhibition Rate at 10 nM (%); for inhibition at 0.5 µM: MV-4-11, 500 nM, read-out: Inhibition Rate at 500 nM (%)
How it was run: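 Cells are seeded in 96-well plates, cultured at 37 °C, 5% CO2, and treated next day with 5-fold serial compound dilutions (stock series from 2000 μM; 0.5 μL into 100 μL medium). Viability is read by CellTiter-Meiluncell luminescence after the set exposure, and IC50 is taken from growth-inhibition curves.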

CDK4 = molecular target: T1, CDK4 (Homo sapiens, UniProt P11802+Q96SW2); experiment: Western blot degradation of CDK4; format: cell-based; conditions: MDA-MB-231 Cell; 24 hours
T1 construct: expression of target proteins in cells; endogenous in cells
T1 sequence (P11802 whole entry): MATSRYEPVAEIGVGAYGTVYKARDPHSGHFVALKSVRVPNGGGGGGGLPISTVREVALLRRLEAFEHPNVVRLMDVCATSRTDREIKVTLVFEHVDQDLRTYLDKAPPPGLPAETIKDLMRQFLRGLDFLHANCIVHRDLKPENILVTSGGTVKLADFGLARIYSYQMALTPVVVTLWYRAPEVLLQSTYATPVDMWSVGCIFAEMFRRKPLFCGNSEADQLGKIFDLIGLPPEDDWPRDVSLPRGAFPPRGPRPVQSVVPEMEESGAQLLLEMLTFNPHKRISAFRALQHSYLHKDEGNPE
T1 sequence (Q96SW2 whole entry): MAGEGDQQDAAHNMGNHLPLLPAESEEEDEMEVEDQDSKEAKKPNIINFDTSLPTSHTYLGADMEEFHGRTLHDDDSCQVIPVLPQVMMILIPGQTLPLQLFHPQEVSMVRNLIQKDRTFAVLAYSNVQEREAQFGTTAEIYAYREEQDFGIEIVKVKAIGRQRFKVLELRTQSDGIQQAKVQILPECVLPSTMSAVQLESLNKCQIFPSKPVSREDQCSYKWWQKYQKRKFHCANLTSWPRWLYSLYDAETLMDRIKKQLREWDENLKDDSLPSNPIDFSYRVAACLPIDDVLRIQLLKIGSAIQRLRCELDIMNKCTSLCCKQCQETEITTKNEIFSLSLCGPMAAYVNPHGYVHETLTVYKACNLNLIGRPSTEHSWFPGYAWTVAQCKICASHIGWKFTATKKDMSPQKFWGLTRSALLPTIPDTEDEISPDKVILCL
T1 sequence (Q16531 whole entry partner): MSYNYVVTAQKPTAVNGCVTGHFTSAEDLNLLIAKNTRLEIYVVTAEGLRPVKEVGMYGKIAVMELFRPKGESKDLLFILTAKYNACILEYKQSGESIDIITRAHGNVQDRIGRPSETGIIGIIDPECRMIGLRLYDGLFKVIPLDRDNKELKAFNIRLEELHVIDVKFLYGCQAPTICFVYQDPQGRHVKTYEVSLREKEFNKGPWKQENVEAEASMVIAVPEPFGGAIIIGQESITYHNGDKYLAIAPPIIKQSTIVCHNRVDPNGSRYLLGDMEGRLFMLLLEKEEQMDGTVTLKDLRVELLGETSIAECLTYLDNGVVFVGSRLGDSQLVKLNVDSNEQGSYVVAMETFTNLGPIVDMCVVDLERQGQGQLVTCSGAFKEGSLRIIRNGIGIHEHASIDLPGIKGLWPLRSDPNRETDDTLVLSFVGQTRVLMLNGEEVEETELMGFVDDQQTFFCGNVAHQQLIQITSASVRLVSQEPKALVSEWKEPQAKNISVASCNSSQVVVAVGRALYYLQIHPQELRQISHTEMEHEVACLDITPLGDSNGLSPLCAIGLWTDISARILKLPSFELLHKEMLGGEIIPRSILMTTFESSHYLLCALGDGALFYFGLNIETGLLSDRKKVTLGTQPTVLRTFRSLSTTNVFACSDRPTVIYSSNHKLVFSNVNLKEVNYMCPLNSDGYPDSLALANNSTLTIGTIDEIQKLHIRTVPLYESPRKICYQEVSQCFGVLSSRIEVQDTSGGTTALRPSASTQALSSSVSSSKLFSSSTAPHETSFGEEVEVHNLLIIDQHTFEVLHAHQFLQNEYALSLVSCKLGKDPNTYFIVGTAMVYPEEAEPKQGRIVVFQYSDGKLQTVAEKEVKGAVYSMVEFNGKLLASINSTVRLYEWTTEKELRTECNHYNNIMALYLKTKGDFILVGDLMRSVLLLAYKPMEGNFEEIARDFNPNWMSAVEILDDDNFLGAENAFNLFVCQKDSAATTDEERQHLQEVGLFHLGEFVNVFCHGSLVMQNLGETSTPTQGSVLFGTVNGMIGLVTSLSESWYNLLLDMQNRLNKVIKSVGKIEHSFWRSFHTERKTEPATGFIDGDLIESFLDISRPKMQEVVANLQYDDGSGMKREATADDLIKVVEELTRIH
Description: (§1) Conventional Western blot assay was performed to evaluate the effects of the compounds of the present disclosure on the expression of target proteins in cells.
(§2) (1) Cell Seeding and Protein Harvesting: The selected cells were processed according to the cell seeding procedure and protein harvesting procedure in Table II-2.
(§3) (2) To the collected supernatant, 5×SDS sample loading buffer was added, followed by denaturation at 95 °C for 5 minutes. The denatured samples were then separated by SDS-PAGE electrophoresis on a polyacrylamide gel. Proteins were transferred to a nitrocellulose membrane (0.45 μm NC membrane), blocked with blocking buffer at room temperature for 1 hour, and subjected to antibody incubation and development procedures according to the antibody manufacturer's instructions (Cell Signaling Technology).
(§4) Half-Maximal Degradation Concentration value (the drug concentration required for degrading proteins by 50%, abbreviated as DC50) reads method: comparing the grayscale values of Western blot bands from drug-treated samples with those from blank DMSO-treated controls, and identifying the drug concentration range at which the grayscale value is half that of the DMSO-treated control bands.
(§5) DC50 values can be calculated using ImageJ software to measure grayscale values of Western blot bands from drug-treated samples. The concentration-response curve is fitted to estimate the drug concentration corresponding to half the grayscale value.
(§6) Target protein remaining (%) refers to the percentage of target protein remaining in cells after treatment with protein degrader compounds.
(§7) Calculation method for target protein remaining (%): Use ImageJ software to measure grayscale values of Western blot bands from drug (protein degrader)-treated samples. The grayscale value of drug-treated bands is divided by that of internal control protein bands, and the resulting quotient is normalized to obtain the relative percentage of remaining target protein after protein degrader treatment.
(§8) Target protein degradation rate (%)=1−target protein remaining (%).

CDK6 = molecular target: T2, CDK6 (Homo sapiens, UniProt Q00534+Q96SW2); experiment: Western blot degradation of CDK6; format: cell-based; conditions: MDA-MB-231 Cell; 24 hours
T2 construct: expression of target proteins in cells; endogenous in cells
T2 sequence (Q00534 whole entry): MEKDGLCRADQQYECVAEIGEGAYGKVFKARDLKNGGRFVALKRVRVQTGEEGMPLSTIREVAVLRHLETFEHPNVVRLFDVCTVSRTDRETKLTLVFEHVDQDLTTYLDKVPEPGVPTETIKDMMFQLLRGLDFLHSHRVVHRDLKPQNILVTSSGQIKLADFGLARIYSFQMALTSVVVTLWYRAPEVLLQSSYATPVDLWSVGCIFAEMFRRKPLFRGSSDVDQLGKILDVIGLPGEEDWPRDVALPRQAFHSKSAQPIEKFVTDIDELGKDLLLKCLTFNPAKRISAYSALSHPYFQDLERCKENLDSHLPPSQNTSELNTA
T2 sequence (Q96SW2 whole entry): as the sequence (Q96SW2 whole entry) above
T2 sequence (Q16531 whole entry partner): as the sequence (Q16531 whole entry partner) above
Description: as §1, §2, §3, §4, §5, §6, §7, §8

[2] = system: Human lung cancer cell line (H292); experiment: Inhibition of H292 cell proliferation (CellTiter luminescent viability); format: cell-based; conditions: NCI-H292, Table IE2, CDK4/6 inhibitor-based, 96 hours; for inhibition at 0.01 µM: H292, 10 nM, read-out: Inhibition Rate at 10 nM (%); for inhibition at 0.5 µM: H292, 500 nM, read-out: Inhibition Rate at 500 nM (%)
[3] = molecular target: T3, human Cereblon WT GST-tagged protein (CRBN) (Homo sapiens, UniProt Q96SW2); experiment: CRBN binding by HTRF (Cereblon binding kit)
T3 construct: purchased CISBIO 64BDCRBNPEH
T3 sequence (Q96SW2 whole entry): as the sequence (Q96SW2 whole entry) above
How it was run: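 GST-tagged human Cereblon WT was incubated 3 h at room temperature with compound, thalidomide-Re tracer and Eu anti-GST antibody. Final compound concentrations were 10 to 0.00064 µM (7 points) or 2 and 0.5 µM. Inhibition rate was calculated from HTRF 665/620 nm ratios versus solvent and blank controls.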

Degradation of substrate protein CDK6 (substrate protein remaining %) (CDK6) | inhibition at 0.5 µM ([3]; 0.5 μM, read-out: Inhibition Rate at 0.5 μM (%)) | inhibition at 2 µM ([3]; 2 μM, read-out: Inhibition Rate at 2 μM (%)) | Structure (SMILES) | inhibition at 0.01 µM [1] | inhibition at 0.5 µM [1] | Degradation of substrate protein CDK4 (substrate protein remaining %) (CDK4) | inhibition at 0.01 µM [2] | inhibition at 0.5 µM [2]
A (0%≤substrate protein remaining %≤80%) |  |  | CC(=O)c1c(C)c2cnc(Nc3ccc(N4CCC(N(C)Cc5ccc6c(c5)CN(N5CCC(=O)NC5=O)C6=O)CC4)cn3)nc2n(C2CCCC2)c1=O [GT-06586, 1-(5-(((1-(6-((6-acetyl-8-cyclopentyl-5-methyl-7-oxo-7,8-dihydropyrido[2,3-d]pyrimidin-2-yl)amino)pyridin-3-yl)piperidin-4-yl)(methyl)amino)methyl)-1-oxoisoindolin-2-yl)dihydropyrimidine-2,4 (1H,3H)-dione] | 25 to 30% | 40 to 60% | A (0%≤substrate protein remaining %≤80%) |  | 
A (0%≤substrate protein remaining %≤80%) |  |  | CN(C)C(=O)c1cc2cnc(Nc3ccc(N4CCC(N(C)CC5CCN(c6ccc7c(c6)C(=O)N(N6CCC(=O)NC6=O)C7=O)CC5)CC4)cn3)nc2n1C1CCCC1 [GT-06489, 7-cyclopentyl-2-((5-(4-(((1-(2-(2,4-dioxotetrahydropyrimidin-1(2H)-yl)-1,3-dioxoisoindolin-5-yl)piperidin-4-yl)methyl)(methyl)amino)piperidin-1-yl)pyridin-2-yl)amino)-N,N-dimethyl-7H-pyrrolo[2,3-d]pyrimidine-6-carboxamide] | 25 to 30% | 40 to 60% | A (0%≤substrate protein remaining %≤80%) | 30 to 35% | 40 to 60%
A (0%≤substrate protein remaining %≤80%) |  |  | CN(C)C(=O)c1cc2cnc(Nc3ccc(N4CCC(N(C)Cc5ccc6c(c5)CN(N5CCC(=O)NC5=O)C6=O)CC4)cn3)nc2n1C1CCCC1 [GT-06487, 7-cyclopentyl-2-((5-(4-(((2-(2,4-dioxotetrahydropyrimidin-1(2H)-yl)-1-oxoisoindolin-5-yl)methyl)(methyl)amino)piperidin-1-yl)pyridin-2-yl)amino)-N,N-dimethyl-7H-pyrrolo[2,3-d]pyrimidine-6-carboxamide] |  |  | A (0%≤substrate protein remaining %≤80%) | 25 to 30% | 40 to 60%
A (0%≤substrate protein remaining %≤80%) |  |  | CN(C)C(=O)c1cc2cnc(Nc3ccc(N4CCC(CN5CCN(c6cc7c(cc6F)C(=O)N(N6CCC(=O)NC6=O)C7=O)CC5)CC4)cn3)nc2n1C1CCCC1 [GT-05199, 7-cyclopentyl-2-((5-(4-((4-(2-(2,4-dioxotetrahydropyrimidin-1(2H)-yl)-6-fluoro-1,3-dioxoisoindolin-5-yl)piperazin-1-yl)methyl)piperidin-1-yl)pyridin-2-yl)amino)-N,N-dimethyl-7H-pyrrolo[2,3-d]pyrimidine-6-carboxamide] |  |  | B (80%<substrate protein remaining %≤100%) | 40 to 60% | 35 to 40%
A (0%≤substrate protein remaining %≤80%) | 30 to 40% | 53 to 60% | Cc1nc2c(F)cc(-c3nc(Nc4ccc(CN5CCN(CC6CCN(c7ccc8c(c7)C(=O)N(N7CCC(=O)NC7=O)C8=O)CC6)CC5)cn4)ncc3F)cc2n1C(C)C [GT-06662, 2-(2,4-dioxotetrahydropyrimidin-1(2H)-yl)-5-(4-((4-((6-((5-fluoro-4-(4-fluoro-1-isopropyl-2-methyl-1H-benzo[d]imidazol-6-yl)pyrimidin-2-yl)amino)pyridin-3-yl)methyl)piperazin-1-yl)methyl)piperidin-1-yl)isoindoline-1,3-dione] |  |  | B (80%<substrate protein remaining %≤100%) |  | 
A (0%≤substrate protein remaining %≤80%) |  |  | CN(C)C(=O)c1cc2cnc(Nc3ccc(N4CCN(CC5CCN(c6cccc7c6C(=O)N(N6CCC(=O)NC6=O)C7=O)CC5)CC4)cn3)nc2n1C1CCCC1 [GT-06338, 7-cyclopentyl-2-((5-(4-((1-(2-(2,4-dioxotetrahydropyrimidin-1(2H)-yl)-1,3-dioxoisoindolin-4-yl)piperidin-4-yl)methyl)piperazin-1-yl)pyridin-2-yl)amino)-N,N-dimethyl-7H-pyrrolo[2,3-d]pyrimidine-6-carboxamide] |  |  | A (0%≤substrate protein remaining %≤80%) | 30 to 35% | 40 to 60%
A (0%≤substrate protein remaining %≤80%) |  |  | CC(=O)c1c(C)c2cnc(Nc3ccc(N4CCN(Cc5ccc6c(c5)CN(N5CCC(=O)NC5=O)C6=O)CC4)cn3)nc2n(C2CCCC2)c1=O [GT-06573, 1-(5-((4-(6-((6-acetyl-8-cyclopentyl-5-methyl-7-oxo-7,8-dihydropyrido[2,3-d]pyrimidin-2-yl)amino)pyridin-3-yl)piperazin-1-yl)methyl)-1-oxoisoindolin-2-yl)dihydropyrimidine-2,4 (1H,3H)-dione] | 40 to 60% | 60 to 80% | B (80%<substrate protein remaining %≤100%) | 30 to 35% | 40 to 60%
A (0%≤substrate protein remaining %≤80%) |  |  | CN(C)C(=O)c1cc2cnc(Nc3ccc(N4CCC(CN5C6CCC5CN(c5ccc7c(c5)C(=O)N(N5CCC(=O)NC5=O)C7=O)C6)CC4)cn3)nc2n1C1CCCC1 [GT-05812, 7-cyclopentyl-2-((5-(4-((3-(2-(2,4-dioxotetrahydropyrimidin-1(2H)-yl)-1,3-dioxoisoindolin-5-yl)-3,8-diazabicyclo[3.2.1]octan-8-yl)methyl)piperidin-1-yl)pyridin-2-yl)amino)-N,N-dimethyl-7H-pyrrolo[2,3-d]pyrimidine-6-carboxamide] | 15 to 20% | 40 to 60% | B (80%<substrate protein remaining %≤100%) | 35 to 40% | 30 to 35%
A (0%≤substrate protein remaining %≤80%) |  |  | CN(C)C(=O)c1cc2cnc(Nc3ccc(N4CCC(CN5CCN(C6CCN(c7ccc8c(c7)C(=O)N(N7CCC(=O)NC7=O)C8=O)CC6)CC5)CC4)cn3)nc2n1C1CCCC1 [GT-05205, 7-cyclopentyl-2-((5-(4-((4-(1-(2-(2,4-dioxotetrahydropyrimidin-1(2H)-yl)-1,3-dioxoisoindolin-5-yl)piperidin-4-yl)piperazin-1-yl)methyl)piperidin-1-yl)pyridin-2-yl)amino)-N,N-dimethyl-7H-pyrrolo[2,3-d]pyrimidine-6-carboxamide] | 20 to 25% | 40 to 60% | B (80%<substrate protein remaining %≤100%) | 35 to 40% | 35 to 40%
